From patent publication US8597618B1, “Dentifrice composition” (Toms's of Maine, Inc., priority 2012, dated 2013)
Read-outs that look alike come from different tables or passages of the source.

Experiments:
[1] = Foaming capability of individual surfactant components admixed with water and agitated; type: physicochemical; conditions: for Foaming ability: numerical score, 1 representing an excellent foamer and 5 a poor foamer
Protocol: The foaming ability was determined by a numerical score, 1 representing an excellent foamer and 5 representing a poor foamer

[2] = test system: EpiOral ORL-200 model; assay: EpiOral in Vitro Irritation Test Method (EpiOral ORL-200 model); conditions: for ET-50 Time: time at which 50% of cells are viable, test terminated at 240 minutes
Protocol: (§1) To evaluate the potential irritancy of the dentifrice formulae, surfactant components were diluted in water and tested using an EpiOral in Vitro Irritation Test Method, in particular the EpiOral ORL-200 model, a known model for testing irritant potential of dentifrice components.
(§2) In the EpiOral test, the dentifrice components were tested to determine the parameter “ET-50” which represents the time at which 50% of cells are viable: the higher the ET-50 time then the less irritating the material.
(§3) Dentifrice compositions incorporating different surfactant systems were also subjected to the EpiOral test.

[3] = test system: EpiOral ORL-200 model
Protocol: as §1, §2, §3

Compound | Foaming ability [1] | ET-50 Time ([2]; surfactant component 1 wt % in water) | ET-50 Time ([2]; surfactant component 2 wt % in water) | potential irritancy ([2]; surfactant components in water at different concentrations, in words) | foaming ability as compared to sodium lauryl sulfate ([1]; individual surfactant components, in words) | ET-50 Time [3] | potential irritancy [3]
CCCCCCCCCCCCOS(=O)(=O)[O-].[Na+] [Sodium lauryl sulfate, sodium lauryl sulfate] | 1 | 115.4 min | 48.3 min | high |  |  | 
lauryl glucoside | 3 |  |  |  | significantly poorer | >240 min | very low
